Read-outs that look alike come from different tables or passages of the source.
Assays:
[1] = target: GST-PPARG-LBD (Homo sapiens (Human), UniProt P37231); test: Lanthascreen PPARG competitive binding assay (Invitrogen, TR-FRET); details: NA = not active, inc = incomplete curve; for IC50: read-out: IC50 (nM) Lantha
Description: Lanthascreen PPARG Competitive Binding Assay (Invitrogen)
The assay was performed according to manufacturer protocol. A mixture of […], 5 nM Tb-GST-antibody, 5 nM Fluormone Pan-PPAR Green, and serial dilutions of the experimental compound, beginning at 10 μM downwards, was added to wells of black 384-well low-volume plates (Greiner) to a total volume of 18 μL. All dilutions were made in TR-FRET assay buffer C. DMSO at 2% final concentration was used as a no-ligand control. Experiment was performed in triplicate, and incubated for 2 hours in the dark prior to assay read in Perkin Elmer ViewLux ultra HTS microplate reader. FRET signal was measured by excitation at 340 nm and emission at 520 nm for fluorescein and 490 nm for terbium. Fold change over DMSO was calculated using GraphPad Prism Software (La Jolla, Calif.) by calculating 520 nm/490 nm ratio. Graphs were plotted as fold change of FRET signal for compound treatment over DMSO-only control.

[2] = target: Gal-4-PPAR (human PPAR LBD fused to GAL4 DNA-binding domain) (Homo sapiens (Human), UniProt P37231); test: GAL4-PPARG LBD / UAS-luciferase transactivation assay in HEK 293T cells; assay type: cell-based; details: for EC50: GAL4 transactivation, HEK 293T cells, NA = not active, read-out: EC50 (nM) GAL4; for activation at 10 µM: HEK-293T, 18 h, read-out: % transactivation at 10 μM (GAL4)
Gal-4-PPAR (human PPAR LBD fused to GAL4 DNA-binding domain), sequence (P37231 238-503): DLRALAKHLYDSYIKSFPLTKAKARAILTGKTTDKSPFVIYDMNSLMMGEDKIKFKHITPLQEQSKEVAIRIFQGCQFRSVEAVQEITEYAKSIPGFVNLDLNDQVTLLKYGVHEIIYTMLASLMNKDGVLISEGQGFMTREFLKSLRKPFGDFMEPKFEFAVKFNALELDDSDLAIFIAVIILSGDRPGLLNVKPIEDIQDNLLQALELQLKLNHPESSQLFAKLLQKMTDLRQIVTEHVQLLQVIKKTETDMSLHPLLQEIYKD

[3] = Lanthascreen competitive binding
[4] = Lanthascreen PPARG competitive binding

GST-PPARG-LBD, sequence (P37231 238-503): as above

Compound `Cc1c(C)n(Cc2ccc(-c3ccccc3C(=O)O)cc2)c2ccc(C(=O)N[C@H](C)c3c(Cl)cccc3Cl)cc12` [Example 141, (R)-4′-((5-((1-(2,6-dichlorophenyl)ethyl)carbamoyl)-2,3-dimethyl-1H-indol-1-yl)methyl)-[1,1′-biphenyl]-2-carboxylic acid] has an IC50 [1, 3] of 30 nM, an EC50 [2] of 529 nM and an activation at 10 µM [2] of 20%.
Compound `Cc1c(C)n(Cc2ccc(-c3ccccc3C(=O)O)cc2)c2ccc(C(=O)N[C@@H](C)c3c(Cl)cccc3Cl)cc12` [Example 142, (S)-4′-((5-((1-(2,6-dichlorophenyl)ethyl)carbamoyl)-2,3-dimethyl-1H-indol-1-yl)methyl)-[1,1′-biphenyl]-2-carboxylic acid] has an IC50 [1, 3] of 51 nM, an EC50 [2] of 6060 nM and an activation at 10 µM [2] of 15%.
Compound `Cc1c(C)n(Cc2ccc(-c3ccccc3C(=O)O)cc2)c2ccc(C(=O)N[C@@H](C)c3cccc4c3OCO4)cc12` [Example 143, (S)-4′-((5-((1-(benzo[d][1,3]dioxol-4-yl)ethyl)carbamoyl)-2,3-dimethyl-1H-indol-1-yl)methyl)-[1,1′-biphenyl]-2-carboxylic acid] has an IC50 [1, 3] of 10 nM, an EC50 [2] of 189 nM and an activation at 10 µM [2] of 45%.
`Cc1c(C)n(Cc2ccc(-c3ccccc3C(=O)O)cc2)c2ccc(C(=O)N[C@@H](C)c3ccccn3)cc12` [Example 144, (S)-4′-((2,3-dimethyl-5-((1-(pyridin-2-yl)ethyl)carbamoyl)-1H-indol-1-yl)methyl)-[1,1′-biphenyl]-2-carboxylic acid] gave an IC50 [1, 3] of 2 nM, an EC50 [2] of 13 nM and an activation at 10 µM [2] of 25%.
With `Cc1c(C)n(Cc2ccc(-c3ccccc3C#N)cc2)c2ccc(C(=O)N[C@@H](C)c3cccc(Cl)c3)cc12` [Example 281, (S)—N-(1-(3-chlorophenyl)ethyl)-1-((2′-cyano-[1,1′-biphenyl]-4-yl)methyl)-2,3-dimethyl-1H-indole-5-carboxamide] the “IC50 (nM) Lantha” value [1, 4] was “inc”.
In the case of `Cc1c(C)n(Cc2ccc(-c3ccccc3C#N)cc2)c2ccc(C(=O)N[C@@H](C)c3cccc(C(F)(F)F)c3)cc12` [Example 282, (S)-1-((2′-cyano-[1,1′-biphenyl]-4-yl)methyl)-2,3-dimethyl-N-(1-(3-(trifluoromethyl)phenyl)ethyl)-1H-indole-5-carboxamide], the “IC50 (nM) Lantha” value [1, 4] is reported as “inc”.
`Cc1c(C)n(Cc2ccc(-c3ccccc3C#N)cc2)c2ccc(C(=O)N[C@@H](C)c3ccc(Cl)cc3)cc12` [Example 283, (S)—N-(1-(4-chlorophenyl)ethyl)-1-((2′-cyano-[1,1′-biphenyl]-4-yl)methyl)-2,3-dimethyl-1H-indole-5-carboxamide] was tested, and the “IC50 (nM) Lantha” value [1, 4] was “inc”.
`Cc1c(C)n(Cc2ccc(-c3ccccc3C#N)cc2)c2ccc(C(=O)N[C@@H](C)c3cccc(Br)c3)cc12` [Example 284, (S)—N-(1-(3-bromophenyl)ethyl)-1-((2′-cyano-[1,1′-biphenyl]-4-yl)methyl)-2,3-dimethyl-1H-indole-5-carboxamide] was tested, and the “IC50 (nM) Lantha” value [1, 4] was “inc”.
For `COc1ccc([C@H](C)NC(=O)c2ccc3c(c2)c(C)c(C)n3Cc2ccc(-c3ccccc3C#N)cc2)cc1` [Example 285, (S)-1-((2′-cyano-[1,1′-biphenyl]-4-yl)methyl)-N-(1-(4-methoxyphenyl)ethyl)-2,3-dimethyl-1H-indole-5-carboxamide], the “IC50 (nM) Lantha” value [1, 4] was “inc”.
`Cc1c(C)n(Cc2ccc(-c3ccccc3C#N)cc2)c2ccc(C(=O)N[C@@H](C)c3ccc(F)cc3F)cc12` [Example 286, (S)-1-((2′-cyano-[1,1′-biphenyl]-4-yl)methyl)-N-(1-(2,4-difluorophenyl)ethyl)-2,3-dimethyl-1H-indole-5-carboxamide] was tested, and the “IC50 (nM) Lantha” value [1, 4] was “inc”.
In the case of `Cc1c(C)n(Cc2ccc(-c3ccccc3C#N)cc2)c2ccc(C(=O)N[C@@H](C)c3ccccc3Cl)cc12` [Example 287, (S)—N-(1-(2-chlorophenyl)ethyl)-1-((2′-cyano-[1,1′-biphenyl]-4-yl)methyl)-2,3-dimethyl-1H-indole-5-carboxamide], the “IC50 (nM) Lantha” value [1, 4] is reported as “inc”.
In the case of `Cc1ccc([C@H](C)NC(=O)c2ccc3c(c2)c(C)c(C)n3Cc2ccc(-c3ccccc3C#N)cc2)cc1` [Example 288, (S)-1-((2′-cyano-[1,1′-biphenyl]-4-yl)methyl)-2,3-dimethyl-N-(1-(p-tolyl)ethyl)-1H-indole-5-carboxamide], the “IC50 (nM) Lantha” value [1, 4] is reported as “inc”.
`CCc1ccc([C@H](C)NC(=O)c2ccc3c(c2)c(C)c(C)n3Cc2ccc(-c3ccccc3C#N)cc2)cc1` [Example 289, (S)-1-((2′-cyano-[1,1′-biphenyl]-4-yl)methyl)-N-(1-(4-ethylphenyl)ethyl)-2,3-dimethyl-1H-indole-5-carboxamide] was tested, and the “IC50 (nM) Lantha” value [1, 4] was “inc”.
With `Cc1c(C)n(Cc2ccc(-c3ccccc3C#N)cc2)c2ccc(C(=O)N[C@@H](C)c3ccc(Cl)c(Cl)c3)cc12` [Example 290, (S)-1-((2′-cyano-[1,1′-biphenyl]-4-yl)methyl)-N-(1-(3,4-dichlorophenyl)ethyl)-2,3-dimethyl-1H-indole-5-carboxamide] the “IC50 (nM) Lantha” value [1, 4] was “inc”.
In the case of `Cc1c(C)n(Cc2ccc(-c3ccccc3C#N)cc2)c2ccc(C(=O)N[C@@H](C)c3ccccc3)cc12` [Example 291, (S)-1-((2′-cyano-[1,1′-biphenyl]-4-yl)methyl)-2,3-dimethyl-N-(1-phenylethyl)-1H-indole-5-carboxamide], the “IC50 (nM) Lantha” value [1, 4] is reported as “inc”.
In the case of `COc1ccccc1[C@H](C)NC(=O)c1ccc2c(c1)c(C)c(C)n2Cc1ccc(-c2ccccc2C#N)cc1` [Example 292, (S)-1-((2′-cyano-[1,1′-biphenyl]-4-yl)methyl)-N-(1-(2-methoxyphenyl)ethyl)-2,3-dimethyl-1H-indole-5-carboxamide], the “IC50 (nM) Lantha” value [1, 4] is reported as “inc”.
For `Cc1c(C)n(Cc2ccc(-c3ccccc3C#N)cc2)c2ccc(C(=O)N[C@@H](C)c3cccc(F)c3)cc12` [Example 293, (S)-1-((2′-cyano-[1,1′-biphenyl]-4-yl)methyl)-N-(1-(3-fluorophenyl)ethyl)-2,3-dimethyl-1H-indole-5-carboxamide], the “IC50 (nM) Lantha” value [1, 4] was “inc”.
For `Cc1c(C)n(Cc2ccc(-c3ccccc3C(=O)NC3CC3)cc2)c2ccc(C(=O)N[C@@H](C)c3cccc(C(C)C)c3)cc12` [Example 305, (S)-1-((2′-(Cyclopropylcarbamoyl)-[1,1′-biphenyl]-4-yl)methyl)-N-(1-(3-isopropylphenyl)ethyl)-2,3-dimethyl-1H-indole-5-carboxamide], the IC50 [1, 4] was 94 nM.
`Cc1c(C)n(Cc2ccc(-c3ccccc3C(=O)N3CC[C@H](O)C3)cc2)c2ccc(C(=O)N[C@@H](C)c3cccc(C(C)C)c3)cc12` [Example 306, 1-((2′-((S)-3-Hydroxypyrrolidine-1-carbonyl)-[1,1′-biphenyl]-4-yl)methyl)-N-((S)-1-(3-isopropylphenyl)ethyl)-2,3-dimethyl-1H-indole-5-carboxamide] showed an IC50 [1, 4] greater than 500 nM.
`Cc1c(C)n(Cc2ccc(-c3ccccc3C(=O)NCCO)cc2)c2ccc(C(=O)N[C@@H](C)c3cccc(C(C)C)c3)cc12` [Example 307, (S)-1-((2′-((2-Hydroxyethyl)carbamoyl)-[1,1′-biphenyl]-4-yl)methyl)-N-(1-(3-isopropylphenyl)ethyl)-2,3-dimethyl-1H-indole-5-carboxamide] showed an IC50 [1, 4] of 600 nM.
Compound `Cc1c(C)n(Cc2ccc(-c3ccccc3C(=O)NC[C@@H](O)C(=O)N(C)C)cc2)c2ccc(C(=O)N[C@@H](C)c3cccc(C(C)C)c3)cc12` [Example 309, 1-((2′-(((R)-3-(Dimethylamino)-2-hydroxy-3-oxopropyl)carbamoyl)-[1,1′-biphenyl]-4-yl)methyl)-N-((S)-1-(3-isopropylphenyl)ethyl)-2,3-dimethyl-1H-indole-5-carboxamide] has an IC50 [1, 4] greater than 1000 nM.
Compound `Cc1c(C)n(Cc2ccc(-c3ccccc3C(=O)NCCN(C)C)cc2)c2ccc(C(=O)N[C@@H](C)c3cccc(C(C)C)c3)cc12` [Example 310, (S)-1-((2′-((2-(Dimethylamino)ethyl)carbamoyl)-[1,1′-biphenyl]-4-yl)methyl)-N-(1-(3-isopropylphenyl)ethyl)-2,3-dimethyl-1H-indole-5-carboxamide] has an IC50 [1, 4] greater than 1000 nM.
`Cc1c(C)n(Cc2ccc(-c3ccccc3C(=O)O)cc2)c2ccc(C(=O)N(C)Cc3ccccc3)cc12` [compound 3, 4′-((5-(Benzyl(methyl)carbamoyl)-2,3-dimethyl-1H-indol-1-yl)methyl)biphenyl-2-carboxylic acid] showed an IC50 [1, 3] of 206 nM.
For `COc1cc(CNC(=O)c2ccc3c(c2)c(C)c(C)n3Cc2ccc(-c3ccccc3C(=O)O)cc2)cc(OC)c1` [compound 22, 4′-((5-(3,5-Dimethoxybenzylcarbamoyl)-2,3-dimethyl-1H-indol-1-yl)methyl)biphenyl-2-carboxylic acid], the IC50 [1, 3] was 10 nM.
`Cc1c(C)n(Cc2ccc(-c3ccccc3C(=O)O)cc2)c2ccc(C(=O)N[C@@H](C)c3ccc4ccccc4c3)cc12` [compound 26, (S)-4′-((2,3-Dimethyl-5-((1-(naphthalen-2-yl)ethyl)carbamoyl)-1H-indol-1-yl)methyl)-[1,1′-biphenyl]-2-carboxylic acid] was tested, and the IC50 [1, 3] was greater than 1000 nM.
For `Cc1c(C)n(Cc2ccc(-c3ccccc3C(=O)O)cc2)c2ccc(C(=O)NCC(=O)c3ccccc3)cc12` [compound 31, 4′-((2,3-Dimethyl-5-((2-oxo-2-phenylethyl)carbamoyl)-1H-indol-1-yl)methyl)-[1,1′-biphenyl]-2-carboxylic acid], the IC50 [1, 3] was 244 nM.
